Species: Rattus norvegicus
Experiment: Compound was tested for inhibition of mitochondrial electron transport
Type: functional

Row | SMILES | IC50
1 | CN(c1ccccc1)N1C(=O)O[C@@](C)(c2ccc(Oc3ccccc3)cc2)C1=O | 35 nM
2 | C[C@@]1(c2ccc(Oc3ccccc3)cc2)OC(=O)N(Nc2ccccc2)C1=O [FAMOXADONE] | 11 nM
